In patent US12622915B2, “Methods of treating PDE IV-mediated diseases or conditions” (Vanda Pharmaceuticals Inc., priority 2020, dated 2026):

Tested on: IMQ induced psoriasis
Experimental: Test Item Details • 1. Dexamethasone Cat. or Batch no.: BCBM4557V (sigma) • Vehicle for dexamethasone (Veh.1): acetone:ethanol (1:1) • Dose: 0.1 mg/ear & 0.25 mg in back skin • Dose volume: 20 μL/ear & 50 μL on back skin • 2. Crisaborole: PZ0037 (Sigma) • Vehicle (Veh.1): acetone:ethanol (1:1) • Dose: 0.1 mg/ear & 0.25 mg in back skin • Dose volume: 20 μL/ear, 50 μL on back skin • 3. Compound of Formula (I) • Vehicle (Veh.1): acetone:ethanol (1:1) • Dose: 0.1 mg/ear & 0.25 mg in back skin • Dose volume: 20 μL/ear, 50 μL on back skin Dexamethasone and Test Item Preparation and Application: • Strength=5 mg/ml
Application=100 μg/20 pit per each ear+250 μg/50 μL on the back G2 to G4 receive Dexamethasone, Crisaborole or test item: Daily topical treatment (D0-D6): 0.1 mg in 20 μl per ear x both the ears+0.25 mg in 50 μl (on the back) 6-8 hrs after IMQ application.
Disease Induction: Application of 5% IMQ cream 40 mg (back) and 5 mg (per ear—Inner surface) daily from day 0-6.
Treatment: 0.5% Dexamethasone solution: 0.25 mg (back) and 0.1 mg (per ear) 8 hrs post IMQ. • Day −2—Depilation on back region • Day 0—Observations (Body weight; ear thickness using digital microcaliper) • Day 2—Observations (Body weight; ear thickness using digital microcaliper) • Day 4—Observations (Body weight; ear thickness using digital microcaliper) • Day 6—Observations (Body weight; ear thickness using digital microcaliper); Blood collection (PK) and Termination {2 hrs after last dose) • Ear collection: PK, Cytokine, MPO, Thickness • Back skin collection, scoring and thickness measurement • Histopathology (optional)
The dorsal posterior area (2 cm×2 cm) of animals is depilated using a hair trimmer. 5% Imiquimod cream: 50 mg/animal (40 mg on the shaved back+5 mg each on the inner part of right and left ear) QD is applied on days 0 to 5 (Groups 1-4).
The body weight is recorded individually for all animals at receipt, day of randomization, prior to treatment, and once in two days thereafter. The animals are observed for mortality at regular intervals.
2 hrs post compound treatment on day 6, all the animals are euthanized, and ear tissues are collected. The right ear is flash frozen in liquid nitrogen and stored at −80° C. until homogenization for MPO and cytokine estimation.
The half of the left ear is used for drug concentration measurement. The other half of the left ear tissue is used for histopathology. The back skin is collected for visual assessment (scoring) and histopathology.
MPO analysis: Snap frozen ear tissue samples are homogenized in 1× assay buffer provided in the kit. The homogenates are centrifuged at 8000 g for 10 minutes in a refrigerated centrifuge. The supernatants are discarded, and the pellet is resuspended in solubilisation buffer (1× assay buffer containing 0.5% HTABr). The samples are homogenized and subjected to three rounds of freeze thaw followed by brief sonication for 10s. The samples are centrifuged at 12,000 g for 10 minutes in a refrigerated centrifuge and the resulting supernatants are analysed for MPO levels based on a fluorometric detection kit. The Kit utilizes a non-fluorescent detection reagent, which is oxidized in the presence of hydrogen peroxide and MPO to produce its fluorescent analogue. (Enzo Life Sciences; ADI-907-029).
Histopathology: At study termination, posterior dorsal skin and ear skin samples are collected. Skin samples are processed using routine histopathological methods and 4-5 μm paraffin sections are prepared. Tissue sections (3 serial sections/animal) are stained with Hematoxylin and eosin (H&E) to evaluate acanthosis, hyper/parakeratosis and inflammatory cellular infiltration in dermis. Severity of lesions are assessed semi quantitatively on a scale of 0-4 by two independent pathologists (0—normal, 1—mild degree, 2—moderate degree, 3—severe degree and 4—extensive or multiple locations) for each parameter in a blinded manner.

## C[C@@H]1C[C@H]2[C@@H]3CCC4=CC(=O)C=C[C@]4(C)[C@@]3(F)[C@@H](O)C[C@]2(C)[C@@]1(O)C(=O)CO [Dexamethasone, reference compound]
mouse, in vivo
  Body weight / body weight loss: significant body weight loss

## N#Cc1ccc(Oc2ccc3c(c2)COB3O)cc1 [Crisaborole, reference compound]
Day 6, topical 0.5%, vs IMQ control
  MPO activity in ear tissue homogenates: do not show significant inhibition
Day 6 at termination, topical 0.5%, vs IMQ control
  Back skin thickness: do not show significant reduction
Topical 0.5%, back skin, maximum score 12, vs IMQ control
  Cumulative clinical scores (erythema, skin thickness, scales): significant reduction in the cumulative clinical scores on day 6
Topical 0.5%, daily, vs IMQ control
  Ear thickness: significant reduction in ear thickness on day 6
Topical 0.5%, maximum score 16, vs IMQ control
  Overall cumulative HP scores of ear skin: significant reduction
Topical 0.5%, vs IMQ control
  Spleen weight or normalized spleen weight: do not show significant reduction
Topical treatment, vs IMQ control
  Cytokine levels in ear tissue homogenates: significant reduction in few of the proinflammatory cytokines
